According to ChEMBL document CHEMBL2401621, “Design, synthesis and antibacterial evaluation of novel AHL analogues” (2013):
Converted amounts (≈) assume the structure as drawn.

Key:
Assay type in all cases: functional
[1] = tested on: Bacillus subtilis; test: Antibacterial activity against Bacillus subtilis after 18 hrs by broth microdilution method
[2] = tested on: Pseudomonas aeruginosa; test: Antibacterial activity against Pseudomonas aeruginosa after 18 hrs by broth microdilution method
[3] = tested on: Staphylococcus aureus; test: Antibacterial activity against Staphylococcus aureus after 18 hrs by broth microdilution method
[4] = tested on: Escherichia coli; test: Antibacterial activity against Escherichia coli after 18 hrs by broth microdilution method

| Compound | MIC50 [1] | MIC50 [2] | MIC50 [3] | MIC50 [4] |
| --- | --- | --- | --- | --- |
| O=C(CSC(=S)N[C@H]1CCOC1=O)Nc1cccc(Cl)c1 | > 128 µg/mL | > 128 µg/mL | > 128 µg/mL | > 128 µg/mL |
| Cc1ccc(NC(=O)CSC(=S)N[C@H]2CCOC2=O)cc1 | > 128 µg/mL | 63.8 µg/mL (≈ 197 µM) | 3.49 µg/mL (≈ 10.8 µM) | 30.6 µg/mL (≈ 94.3 µM) |
| COc1ccc(NC(=O)CSC(=S)N[C@H]2CCOC2=O)cc1 | > 128 µg/mL | > 128 µg/mL | 9.52 µg/mL (≈ 28 µM) | 54.2 µg/mL (≈ 159 µM) |
| CSC(=S)N[C@H]1CCOC1=O | > 128 µg/mL | 31.9 µg/mL (≈ 167 µM) | > 128 µg/mL | 17.6 µg/mL (≈ 92 µM) |
| CCSC(=S)N[C@H]1CCOC1=O | > 128 µg/mL | 34.6 µg/mL (≈ 168 µM) | > 128 µg/mL | 25.2 µg/mL (≈ 123 µM) |
| CCCCSC(=S)N[C@H]1CCOC1=O | > 128 µg/mL | 44.6 µg/mL (≈ 191 µM) | > 128 µg/mL | > 128 µg/mL |
| CCCCCCSC(=S)N[C@H]1CCOC1=O | > 128 µg/mL | > 128 µg/mL | > 128 µg/mL | > 128 µg/mL |
| CCCCCCCCSC(=S)N[C@H]1CCOC1=O | > 128 µg/mL | > 128 µg/mL | > 128 µg/mL | > 128 µg/mL |
| CCCCCCCCCCCCSC(=S)N[C@H]1CCOC1=O | > 128 µg/mL | > 128 µg/mL | 50.6 µg/mL (≈ 146 µM) | > 128 µg/mL |
| CCCCCCCCCCCCCCSC(=S)N[C@H]1CCOC1=O | > 128 µg/mL | > 128 µg/mL | > 128 µg/mL | 67.8 µg/mL (≈ 182 µM) |

Other lines, results leading:

| MIC50 [1] | MIC50 [2] | MIC50 [3] | MIC50 [4] | Compound |
| --- | --- | --- | --- | --- |
| > 128 µg/mL | > 128 µg/mL | 6.53 µg/mL (≈ 19.9 µM) | 40.5 µg/mL (≈ 123 µM) | O=C(CSC(=S)N[C@H]1CCOC1=O)Nc1ccccc1F |
| > 128 µg/mL | > 128 µg/mL | 3.5 µg/mL (≈ 10.1 µM) | > 128 µg/mL | O=C(CSC(=S)N[C@H]1CCOC1=O)Nc1ccc(Cl)cc1 |
| 30.2 µg/mL (≈ 77.7 µM) | 54.5 µg/mL (≈ 140 µM) | 3.69 µg/mL (≈ 9.48 µM) | 24.9 µg/mL (≈ 63.9 µM) | O=C(CSC(=S)N[C@H]1CCOC1=O)Nc1ccc(Br)cc1 |
| > 128 µg/mL | > 128 µg/mL | > 128 µg/mL | > 128 µg/mL | Cc1cccc(NC(=O)CSC(=S)N[C@H]2CCOC2=O)c1C |
| > 128 µg/mL | 37.2 µg/mL (≈ 115 µM) | > 128 µg/mL | > 128 µg/mL | Cc1cccc(NC(=O)CSC(=S)N[C@H]2CCOC2=O)c1 |
| 47.9 µg/mL (≈ 154 µM) | 48.5 µg/mL (≈ 156 µM) | 7.72 µg/mL (≈ 24.9 µM) | > 128 µg/mL | O=C(CSC(=S)N[C@H]1CCOC1=O)Nc1ccccc1 |
| 9.63 µg/mL (≈ 27.9 µM) | > 128 µg/mL | 5.62 µg/mL (≈ 16.3 µM) | > 128 µg/mL | O=C(CSC(=S)N[C@H]1CCOC1=O)Nc1ccccc1Cl |
| 5.6 µg/mL (≈ 14.8 µM) | > 128 µg/mL | 4.9 µg/mL (≈ 12.9 µM) | 21 µg/mL (≈ 55.4 µM) | O=C(CSC(=S)N[C@H]1CCOC1=O)Nc1ccc(Cl)cc1Cl |
| 1.44 µg/mL (≈ 3.81 µM) | > 128 µg/mL | 5.81 µg/mL (≈ 15.3 µM) | > 128 µg/mL | O=C(CSC(=S)N[C@H]1CCOC1=O)Nc1cccc(C(F)(F)F)c1 |
| 6.29 µg/mL (≈ 17.7 µM) | 59.9 µg/mL (≈ 169 µM) | 8.67 µg/mL (≈ 24.4 µM) | 12.8 µg/mL (≈ 36 µM) | O=C(CSC(=S)N[C@H]1CCOC1=O)Nc1cccc([N+](=O)[O-])c1 |
| < 0.25 µg/mL | < 0.25 µg/mL | < 0.25 µg/mL | < 0.25 µg/mL | C[C@H]1COc2c(N3CCN(C)CC3)c(F)cc3c(=O)c(C(=O)O)cn1c23.C[C@H]1COc2c(N3CCN(C)CC3)c(F)cc3c(=O)c(C(=O)O)cn1c23.O [LEVOFLOXACIN] |
